Results on ten compounds are retold here after patent US20040242641A1, “(1S,5S)-3-(5,6-dichloro-3-pyridinyl)-3,6-diazabicyclo[3.2.0]heptane is an effective analgesic agent” (priority 2003, published 2004).

Assay [1] concerns the target T1, ganglionic-like nicotinic acetylcholine receptor (nAChR) subtype in IMR-32 human neuroblastoma cells (Homo sapiens, UniProt P30926+P32297).
T1 construct: host or cells: IMR-32 human neuroblastoma cells
The assay can be described thus: IMR-32 FLIPR assay, intracellular Ca2+ changes (side effect liability). Type of assay: cell-based. The protocol: Cells were plated out at a density of 1×10^6 cells per well on black-walled, clear-bottomed, 96-well plates (Costar, Cambridge, Mass.) and used approximately 72 hours after plating. All plates were coated with polyethylenimine to aid in the adherence of the cells to the plate.
Changes in the intracellular Ca^2+ content of IMR-32 cells were measured using the calcium chelating dye Fluo-4 (Molecular Probes, Eugene, Oreg.) in conjunction with a Fluorescent Imaging Plate Reader (Molecular Devices, Sunnyvale, Calif.). The cell permeant acetoxymethyl (AM) ester form of […] was prepared to a concentration of 1 mM in anhydrous DMSO and 10% pluronic acid. The dye was then diluted to a final concentration of […] in growth media and placed on the cells for 1 hour at 37° C. Black-walled 96-well plates were utilized to reduce light scattering. The unincorporated dye was removed from the cells by excessive washing with the assay buffer (HETES buffer, 20 mM Hepes, 120 mM NaCl, 5 mM KCl, 1 mM MgCl2, 5 mM glucose, […], and 5 mM CaCl2). […] The intensity of the fluorescence was captured by the CCD camera every second for the first minute following the agonist addition with additional readings every 5 seconds for a total time period of 5 minutes. These images were digitally transferred to an interfaced PC and change in fluorescence intensity processed for each well. The exposure setting of the camera was 0.4 sec with an f-stop setting of […].
The IMR-32 FLIPR assay, described herein, measures cation […] that is mediated through the ganglionic-like nicotinic acetylcholine receptor (nAChR) subtype. Agents that facilitate cation […] of the ganglionic nAChR subtype have been linked to side effect liabilty such as cardiovascular pressor effects.

The subject of assay [2] is mechanical allodynia in the affected paw of animals that had undergone spinal nerve ligation. In words: Spinal nerve (L5/L6) ligation neuropathic pain model, mechanical allodynia with von Frey filaments. The class given is in vivo, rat. The following applies: for ED50: Rattus norvegicus, read-out: Analgesic Effect ED50. The source says:
Male Sprague Dawley rats (80-100 g) were purchased from Charles River (Portage, Mich.). Prior to surgery, animals were group-housed and maintained in a temperature regulated environment (lights on between 7:00 a.m. and 8:00 p.m.). Following nerve ligation surgery, animals were group housed. Rats had access to food and water ad libitum.
The L5 and L6 spinal nerves of anesthesized rats were tightly ligated in the manner described previously by S. H. Kim and J. M. Chung, PAIN 50:355 (1992). Briefly, an incision was made on the dorsal portion of the hip and the muscle was blunt dissected to reveal the spinal processes. The L6 transverse process was removed, and the left L5 and L6 spinal nerves were tightly ligated with 5.0 braided silk suture. The wound was cleaned, the membrane sewn with 4.0 dissolvable Vicryl suture and the skin closed with wound clips.
For the assessment of neuropathic pain, mechanical allodynia in the affected paw of animals that had undergone spinal nerve ligation was evaluated using von Frey filaments. As described previously by S. R. Chaplan, F. W. Bach, J. W. Pogrel, J. M. Chung, and T. L. Yaksh, “Quantitative assessment of tactile allodynia in the rat paw” J. Neurosci. Meth., 53:55-63 (1994) two weeks following surgery, rats were acclimated to the testing box that was constructed of plexiglass with a wire mesh floor to allow access to the planter surface of the hindpaws. Using the Dixons Up-Down method, a baseline level of allodynia was determined to have a withdrawal threshold of <4 g of pressure. […] The EC50 was determined to be 1 μmol/kg.

Assay [3] concerns scopolamine-induced cognitive deficit. The assay can be described thus: Morris water maze, spatial discrimination version, scopolamine-induced cognitive deficit. Type of assay: in vivo, rat. Conditions: about 0.001 to about 5 μmol/kg, 30 minutes prior to the test; scopolamine-HBr 0.3 mg/kg i.p. The protocol: Male, Long-Evans rats, 300-400 g, obtained from Charles River laboratories were used in this study. During two daily habituation sessions, rats are trained to find a visible escape platform in a pool (180 cm diameter and 60 cm high) filled to a depth of 37 cm with water made opaque with powdered milk. Water temperature is maintained at 26° C. On the second day of habituation training, latency to escape measures are obtained in order to assure that animals are assigned to groups without swim speed bias. For spatial discrimination training, two visible platforms, covered in aluminum foil, are present. The platforms remain in the same position (diagonal to each other) through 5 days of training. Only one of the platforms provides escape; the other, made of expanded polystyrene, will not support the animals' weight. Rats receive six trials/day, with start position changed from trial to trial. The number of contacts with the incorrect platform (errors) serves as the dependent variable.
A cognitive deficit, as measured by increased number of errors in the water maze test, is induced by i.p. administration of the muscarinic antagonist scopolamine-HBr (0.3 mg/kg), dosed 15 min prior to each daily discrimination training session (over five days total).

In assay [4] the target is T2, neuronal nicotinic acetylcholine receptors (Rattus norvegicus, UniProt P09483+P12390).
T2 construct: crude synaptic membrane preparations from whole rat brain; from tissue; host or cells: whole rat brain, crude synaptic membranes
In words: [3H]-cytisine binding to neuronal nicotinic acetylcholine receptors, crude synaptic membranes from whole rat brain. Conditions: [3H]-CYT 1.25 nM, Cheng and Prusoff correction. Here is the method: (1S,5S)-3-(5,6-Dichloro-3-pyridinyl)-3,6-diazabicyclo [3.2.0]heptane was subjected to an vitro assay against the nicotinic acetylcholine receptor as described below.
Binding of [^3H]-cytisine ([^3H]-CYT) to neuronal nicotinic acetylcholine receptors was accomplished using crude synaptic membrane preparations from whole rat brain (Pabreza et al., Molecular Pharmacol., 1990, 39:9). Washed membranes were stored at −80° C. prior to use. Frozen aliquots were slowly thawed and resuspended in 20 volumes of buffer (containing: 120 mM NaCl, 5 mM KCl, 2 mM MgCl2, 2 mM CaCl2 and 50 mM Tris-Cl, pH 7.4 @4° C.). After centrifuging at 20,000×g for 15 minutes, the pellets were resuspended in 30 volumes of buffer.
Each test compound was dissolved in water to make 10 mM stock solutions, diluted (1 :100) with buffer (as above), and further taken through seven serial log dilutions to produce test solutions from 10^−5 to 10^−11 M.
Homogenate (containing 125-150 μg protein) was added to triplicate tubes containing the range of concentrations of test compound described above and [^3H]-CYT (1.25 nM) in a final volume of 500 μL. […] The filters are counted in 4 mL of Ecolume® (ICN). Nonspecific binding was determined in the presence of 10 μM (−)-nicotine and values were expressed as a percentage of total binding. […]

The mark [5] stands for this setting: IMR-32, Table 1, relative to nicotine, read-out: IMR-32 activitiy % efficacy.
Setting [6] is: Table 1, read-out: IMR-32 activitiy EC50.
Where [7] appears, read: intraperitoneally 15 minutes before testing.

Read-outs that look alike come from different tables or passages of the source.

T1 sequence (P32297 32-505): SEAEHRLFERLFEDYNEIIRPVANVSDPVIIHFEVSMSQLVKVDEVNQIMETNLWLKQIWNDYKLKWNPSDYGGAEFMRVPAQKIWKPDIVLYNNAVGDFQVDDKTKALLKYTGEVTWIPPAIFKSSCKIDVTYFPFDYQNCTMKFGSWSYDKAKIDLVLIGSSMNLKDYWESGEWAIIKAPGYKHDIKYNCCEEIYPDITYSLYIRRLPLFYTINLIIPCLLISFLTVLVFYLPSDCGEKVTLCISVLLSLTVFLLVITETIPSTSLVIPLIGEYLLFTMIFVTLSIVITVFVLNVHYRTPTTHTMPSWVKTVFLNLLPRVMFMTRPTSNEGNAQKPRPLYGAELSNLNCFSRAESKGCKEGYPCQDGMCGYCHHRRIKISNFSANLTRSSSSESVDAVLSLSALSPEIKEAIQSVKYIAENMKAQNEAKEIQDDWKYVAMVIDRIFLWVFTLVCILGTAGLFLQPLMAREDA
T1 sequence (P30926 22-498): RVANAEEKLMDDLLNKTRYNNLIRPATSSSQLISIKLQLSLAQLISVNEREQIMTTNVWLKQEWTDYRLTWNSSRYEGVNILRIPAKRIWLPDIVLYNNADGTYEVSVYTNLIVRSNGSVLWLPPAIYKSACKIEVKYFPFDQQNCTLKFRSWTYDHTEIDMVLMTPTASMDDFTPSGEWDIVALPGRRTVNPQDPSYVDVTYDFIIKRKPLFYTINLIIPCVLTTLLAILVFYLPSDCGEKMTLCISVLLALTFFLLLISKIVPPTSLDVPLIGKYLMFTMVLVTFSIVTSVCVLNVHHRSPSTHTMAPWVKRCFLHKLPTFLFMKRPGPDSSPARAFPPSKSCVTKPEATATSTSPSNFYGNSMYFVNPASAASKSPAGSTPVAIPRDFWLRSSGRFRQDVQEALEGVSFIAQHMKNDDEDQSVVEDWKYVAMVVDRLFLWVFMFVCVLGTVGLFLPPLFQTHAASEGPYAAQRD
T2 sequence (P09483 31-630): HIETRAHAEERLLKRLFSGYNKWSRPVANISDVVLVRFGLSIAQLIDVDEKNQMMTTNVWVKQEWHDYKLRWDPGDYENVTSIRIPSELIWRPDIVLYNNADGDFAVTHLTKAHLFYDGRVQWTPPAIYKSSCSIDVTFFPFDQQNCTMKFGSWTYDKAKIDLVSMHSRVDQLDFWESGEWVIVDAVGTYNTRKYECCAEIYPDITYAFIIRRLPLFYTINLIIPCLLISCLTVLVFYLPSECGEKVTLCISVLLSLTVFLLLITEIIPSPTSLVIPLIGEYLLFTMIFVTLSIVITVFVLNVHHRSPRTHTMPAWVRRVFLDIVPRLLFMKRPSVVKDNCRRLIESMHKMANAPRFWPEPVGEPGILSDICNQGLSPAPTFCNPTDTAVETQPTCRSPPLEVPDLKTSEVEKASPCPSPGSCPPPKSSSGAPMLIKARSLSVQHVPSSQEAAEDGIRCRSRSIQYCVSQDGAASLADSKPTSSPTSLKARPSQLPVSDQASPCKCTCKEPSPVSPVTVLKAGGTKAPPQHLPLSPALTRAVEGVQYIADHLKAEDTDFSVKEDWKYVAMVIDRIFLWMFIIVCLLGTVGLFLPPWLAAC
T2 sequence (P12390 25-500): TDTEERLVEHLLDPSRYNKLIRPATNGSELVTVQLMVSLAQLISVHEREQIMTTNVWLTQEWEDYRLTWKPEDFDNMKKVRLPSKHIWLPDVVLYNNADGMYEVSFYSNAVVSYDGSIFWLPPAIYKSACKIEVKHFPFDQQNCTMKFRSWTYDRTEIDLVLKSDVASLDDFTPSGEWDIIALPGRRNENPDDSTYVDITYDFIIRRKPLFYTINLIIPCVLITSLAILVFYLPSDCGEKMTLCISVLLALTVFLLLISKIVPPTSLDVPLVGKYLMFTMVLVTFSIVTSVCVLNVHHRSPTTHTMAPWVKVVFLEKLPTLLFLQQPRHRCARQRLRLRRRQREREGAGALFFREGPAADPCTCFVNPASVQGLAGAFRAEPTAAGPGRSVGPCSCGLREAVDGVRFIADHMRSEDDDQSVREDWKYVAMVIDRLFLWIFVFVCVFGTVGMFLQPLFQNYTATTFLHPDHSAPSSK

The term EC50 denotes the midpoint of the concentration-response curve. The term ED50 denotes the dose at which the effect has come halfway, by size or by number of responders. On to `N#Cc1cncc(N2C[C@@H]3CN[C@@H]3C2)c1` [5-[(1S,5S)-3,6-diazabicyclo[3.2.0]hept-3-yl]nicotinonitrile], for which, in assay [1] (setting [5]), the Emax worked out at 85%. Moreover, the EC50 in assay [1] (setting [6]) is 19.9 µM. Further, the median effective dose (ED50) in assay [2] is above 19 µmol/kg.

`Cc1cc(N2C[C@@H]3CN[C@@H]3C2)cnc1Cl` [(1S,5S)-3-(6-chloro-5-methyl-3-pyridinyl)-3,6-diazabicyclo[3.2.0]heptane] returned a concentration for a half-maximal effect (EC50) in assay [1] of 3.4 µM. Further, in assay [1] (setting [5]), the Emax is 94%. In assay [2], the ED50 is above 19 µmol/kg.

Take `Clc1cc(N2C[C@@H]3CN[C@@H]3C2)cnc1Br` [(1S,5S)-3-(6-bromo-5-chloro-3-pyridinyl)-3,6-diazabicyclo[3.2.0]heptane]: the EC50 in assay [1] was determined as 1.4 µM. For the same compound, the Emax in assay [1] (setting [5]) is 81%. Besides, the ED50 in assay [2] is above 19 µmol/kg.

For `Clc1cc(N2C[C@H]3CN[C@H]3C2)cnc1Cl` [(1R,5R)-3-(5,6-dichloro-3-pyridinyl)-3,6-diazabicyclo[3.2.0]heptane], in assay [1] (setting [5]), the Emax is 106%. Also, the EC50 in assay [1] (setting [6]) came to 0.078 µM.

Regarding `c1cncc(N2C[C@@H]3CN[C@@H]3C2)c1` [(1S,5S)-3-(3-pyridinyl)-3,6-diazabicyclo[3.2.0]heptane], the Emax in assay [1] (setting [5]) was 100%. The EC50 in assay [1] (setting [6]) turned out to be 23.2 µM. Besides, the ED50 in assay [2] was 20 µmol/kg.

For `COc1cncc(N2C[C@@H]3CN[C@@H]3C2)c1` [(1S,5S)-3-(5-methoxy-3-pyridinyl)-3,6-diazabicyclo[3.2.0]heptane], in assay [1], a half-maximal effect (EC50) was put at 3.8 µM. The Emax in assay [1] (setting [5]) was 147%. The median effective dose (ED50) in assay [2] was above 19 µmol/kg.

`N#Cc1cc(N2C[C@@H]3CN[C@@H]3C2)cnc1Br` [2-bromo-5-[(1S,5S)-3,6-diazabicyclo[3.2.0]hept-3-yl]nicotinonitrile]: the EC50 in assay [1] was 1.2 µM. Besides, the Emax in assay [1] (setting [5]) amounted to 103%. For the same compound, the ED50 in assay [2] was above 19 µmol/kg.

The compound `Clc1ccc(N2C[C@@H]3CN[C@@H]3C2)cn1` [(1S,5S)-3-(6-chloro-3-pyridinyl)-3,6-diazabicyclo[3.2.0]heptane] came in with an EC50 in assay [1] of 1.4 µM. In addition, the Emax in assay [1] (setting [5]) amounted to 102%. Besides, the ED50 in assay [2] was 11 µmol/kg.

In general, Ki refers to the dissociation constant of the complex between target and ligand, obtained from inhibition or displacement. Low readings indicate a stronger hold on the target, high ones a looser hold on the target. Consider `Clc1cc(N2C[C@@H]3CN[C@@H]3C2)cnc1Cl` [(1S,5S)-3-(5,6-dichloro-3-pyridinyl)-3,6-diazabicyclo[3.2.0]heptane], for which the “effect on scopolamine-induced cognitive deficit in water maze (errors)” value in assay [3] was “reversed the cognitive deficit and normalized the performance of the animals in the water maze”. Further, the Emax in assay [1] (setting [5]) amounted to 73%. Further, the Emax in assay [1] (IMR-32, relative to 100 μM nicotine (100%), read-out: maximum efficacy compared to nicotine) was found to be 73%. Moreover, in assay [1] (percent maximal intensity relative to 100 μM nicotine, read-out: EC50 (calcium, IMR-32 cells)), the EC50 was 5.5 µM. Further, in assay [4], the Ki stood at 0.0001 µM. In addition, the ED50 in assay [2] (Table 1) came out at 1 µmol/kg. Also, in assay [2] (setting [7]), the “ED50 (increase in withdrawal threshold)” value is 1 µmol/kg and the “effect on withdrawal threshold” value is listed as “dose-dependent increase in the withdrawal threshold”. For the same compound, in assay [2] (intraperitoneally 15 minutes before testing, baseline threshold <4 g), the “maximum effect on withdrawal threshold” value is 15 g.

For `Clc1ccc(C2CC3CCC2N3)cn1` (stereo not drawn) [epibatidine], in assay [1] (IMR-32, read-out: maximum efficacy compared to nicotine), the Emax amounted to 137%.
